Reference: US20050282743A1, “Molecular interactions in cells” (Arbor Vita Corporation, priority 2001, published 2005)
Ends that are not written are not given here. Peptide text beside a SMILES is read from it. * marks the point of attachment. Biotin = O=C1N[C@H]2[C@H](CS[C@H]2CCCCC(=O)*)N1

Columns and labels:
Test in all cases: G' assay (10 uM PL peptide), results of TABLE 7 and TABLE 12
Assay type in all cases: binding
[1] = target: T1, PDZ protein (GST-PDZ fusion) (Homo sapiens, UniProt Q12923)
T1 construct: made in house; host or cells: E. coli (DH5alpha, BL21 or JM109)
T1 sequence (Q12923 whole entry, the tested form may be a part): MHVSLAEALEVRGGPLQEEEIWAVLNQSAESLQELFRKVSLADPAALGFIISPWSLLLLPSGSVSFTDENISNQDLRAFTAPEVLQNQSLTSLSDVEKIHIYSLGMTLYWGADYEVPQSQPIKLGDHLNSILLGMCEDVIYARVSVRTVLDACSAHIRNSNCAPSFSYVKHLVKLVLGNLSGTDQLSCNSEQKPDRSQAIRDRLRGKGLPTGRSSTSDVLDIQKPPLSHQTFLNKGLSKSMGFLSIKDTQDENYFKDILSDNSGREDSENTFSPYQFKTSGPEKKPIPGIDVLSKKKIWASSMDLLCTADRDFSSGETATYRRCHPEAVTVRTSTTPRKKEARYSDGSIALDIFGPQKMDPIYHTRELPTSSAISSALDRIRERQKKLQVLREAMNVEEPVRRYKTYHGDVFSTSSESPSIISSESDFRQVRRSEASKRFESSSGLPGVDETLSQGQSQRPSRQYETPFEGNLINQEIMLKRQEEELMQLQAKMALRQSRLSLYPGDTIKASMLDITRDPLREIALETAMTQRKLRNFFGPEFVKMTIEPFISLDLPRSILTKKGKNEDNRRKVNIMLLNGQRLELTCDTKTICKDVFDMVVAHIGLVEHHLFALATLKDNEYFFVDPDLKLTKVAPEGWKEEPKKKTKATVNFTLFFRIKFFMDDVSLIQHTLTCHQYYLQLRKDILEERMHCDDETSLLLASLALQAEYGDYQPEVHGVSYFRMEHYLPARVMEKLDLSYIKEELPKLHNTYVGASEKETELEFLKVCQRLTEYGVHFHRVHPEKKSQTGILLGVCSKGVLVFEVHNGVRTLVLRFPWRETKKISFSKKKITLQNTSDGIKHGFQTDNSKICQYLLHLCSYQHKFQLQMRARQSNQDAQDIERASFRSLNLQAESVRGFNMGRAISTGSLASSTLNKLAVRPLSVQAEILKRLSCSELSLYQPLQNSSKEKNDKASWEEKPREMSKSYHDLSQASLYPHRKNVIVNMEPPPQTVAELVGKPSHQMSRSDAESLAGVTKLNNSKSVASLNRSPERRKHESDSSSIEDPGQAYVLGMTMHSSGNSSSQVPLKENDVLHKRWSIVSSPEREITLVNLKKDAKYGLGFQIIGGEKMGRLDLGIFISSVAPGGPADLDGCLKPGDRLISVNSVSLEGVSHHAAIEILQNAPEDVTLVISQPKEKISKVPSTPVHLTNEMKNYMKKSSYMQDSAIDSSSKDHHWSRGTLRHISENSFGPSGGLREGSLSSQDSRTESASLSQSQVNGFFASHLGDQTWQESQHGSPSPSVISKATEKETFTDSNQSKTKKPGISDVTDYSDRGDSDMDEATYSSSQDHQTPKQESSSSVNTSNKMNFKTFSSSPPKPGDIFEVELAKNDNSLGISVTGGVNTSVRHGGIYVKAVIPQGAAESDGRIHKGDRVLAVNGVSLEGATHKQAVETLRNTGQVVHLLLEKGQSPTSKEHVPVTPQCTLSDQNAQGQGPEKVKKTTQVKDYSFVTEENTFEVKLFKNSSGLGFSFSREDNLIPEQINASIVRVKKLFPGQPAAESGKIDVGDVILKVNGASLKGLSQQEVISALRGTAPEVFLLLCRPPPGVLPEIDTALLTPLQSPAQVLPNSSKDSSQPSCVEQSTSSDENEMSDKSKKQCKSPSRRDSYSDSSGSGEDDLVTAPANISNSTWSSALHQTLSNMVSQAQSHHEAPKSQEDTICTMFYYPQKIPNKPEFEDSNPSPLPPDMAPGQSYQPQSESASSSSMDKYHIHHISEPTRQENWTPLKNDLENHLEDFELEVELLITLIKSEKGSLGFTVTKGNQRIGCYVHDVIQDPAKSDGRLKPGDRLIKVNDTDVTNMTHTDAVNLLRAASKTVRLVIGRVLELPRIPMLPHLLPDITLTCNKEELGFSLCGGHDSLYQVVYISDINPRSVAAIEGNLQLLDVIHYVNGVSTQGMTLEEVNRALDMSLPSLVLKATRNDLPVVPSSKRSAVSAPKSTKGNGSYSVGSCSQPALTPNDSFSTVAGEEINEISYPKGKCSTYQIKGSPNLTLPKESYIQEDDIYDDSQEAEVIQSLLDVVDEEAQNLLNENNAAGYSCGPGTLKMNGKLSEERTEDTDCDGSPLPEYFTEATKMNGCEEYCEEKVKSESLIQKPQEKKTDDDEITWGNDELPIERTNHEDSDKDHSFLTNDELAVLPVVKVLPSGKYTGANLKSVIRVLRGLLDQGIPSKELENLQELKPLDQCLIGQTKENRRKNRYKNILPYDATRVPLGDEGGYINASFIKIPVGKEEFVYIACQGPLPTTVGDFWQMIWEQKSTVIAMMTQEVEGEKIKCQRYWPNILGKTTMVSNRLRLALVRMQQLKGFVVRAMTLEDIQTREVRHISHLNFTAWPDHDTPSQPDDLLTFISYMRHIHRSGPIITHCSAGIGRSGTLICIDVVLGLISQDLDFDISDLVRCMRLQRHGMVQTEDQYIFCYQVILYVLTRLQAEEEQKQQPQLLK
Method in brief: (§1)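 Biotin-PL peptide (N-term label), 10 uM vs GST-PDZ; protein 5 ug/ml by default. A450 nm binned: 1 = 0-1, 2 = 1-2, 3 = 2-3, 4 = 3-4, 5 = >4 on >2 repeats, 0 = no binding.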

[2] = system: PDZ protein (GST-PDZ fusion)
Method in brief: as §1

[3] = target: T2, PDZ protein (GST-PDZ fusion) (Homo sapiens, UniProt Q5TCQ9)
T2 construct: made in house; host or cells: E. coli (DH5alpha, BL21 or JM109)
T2 sequence (Q5TCQ9 1-1481): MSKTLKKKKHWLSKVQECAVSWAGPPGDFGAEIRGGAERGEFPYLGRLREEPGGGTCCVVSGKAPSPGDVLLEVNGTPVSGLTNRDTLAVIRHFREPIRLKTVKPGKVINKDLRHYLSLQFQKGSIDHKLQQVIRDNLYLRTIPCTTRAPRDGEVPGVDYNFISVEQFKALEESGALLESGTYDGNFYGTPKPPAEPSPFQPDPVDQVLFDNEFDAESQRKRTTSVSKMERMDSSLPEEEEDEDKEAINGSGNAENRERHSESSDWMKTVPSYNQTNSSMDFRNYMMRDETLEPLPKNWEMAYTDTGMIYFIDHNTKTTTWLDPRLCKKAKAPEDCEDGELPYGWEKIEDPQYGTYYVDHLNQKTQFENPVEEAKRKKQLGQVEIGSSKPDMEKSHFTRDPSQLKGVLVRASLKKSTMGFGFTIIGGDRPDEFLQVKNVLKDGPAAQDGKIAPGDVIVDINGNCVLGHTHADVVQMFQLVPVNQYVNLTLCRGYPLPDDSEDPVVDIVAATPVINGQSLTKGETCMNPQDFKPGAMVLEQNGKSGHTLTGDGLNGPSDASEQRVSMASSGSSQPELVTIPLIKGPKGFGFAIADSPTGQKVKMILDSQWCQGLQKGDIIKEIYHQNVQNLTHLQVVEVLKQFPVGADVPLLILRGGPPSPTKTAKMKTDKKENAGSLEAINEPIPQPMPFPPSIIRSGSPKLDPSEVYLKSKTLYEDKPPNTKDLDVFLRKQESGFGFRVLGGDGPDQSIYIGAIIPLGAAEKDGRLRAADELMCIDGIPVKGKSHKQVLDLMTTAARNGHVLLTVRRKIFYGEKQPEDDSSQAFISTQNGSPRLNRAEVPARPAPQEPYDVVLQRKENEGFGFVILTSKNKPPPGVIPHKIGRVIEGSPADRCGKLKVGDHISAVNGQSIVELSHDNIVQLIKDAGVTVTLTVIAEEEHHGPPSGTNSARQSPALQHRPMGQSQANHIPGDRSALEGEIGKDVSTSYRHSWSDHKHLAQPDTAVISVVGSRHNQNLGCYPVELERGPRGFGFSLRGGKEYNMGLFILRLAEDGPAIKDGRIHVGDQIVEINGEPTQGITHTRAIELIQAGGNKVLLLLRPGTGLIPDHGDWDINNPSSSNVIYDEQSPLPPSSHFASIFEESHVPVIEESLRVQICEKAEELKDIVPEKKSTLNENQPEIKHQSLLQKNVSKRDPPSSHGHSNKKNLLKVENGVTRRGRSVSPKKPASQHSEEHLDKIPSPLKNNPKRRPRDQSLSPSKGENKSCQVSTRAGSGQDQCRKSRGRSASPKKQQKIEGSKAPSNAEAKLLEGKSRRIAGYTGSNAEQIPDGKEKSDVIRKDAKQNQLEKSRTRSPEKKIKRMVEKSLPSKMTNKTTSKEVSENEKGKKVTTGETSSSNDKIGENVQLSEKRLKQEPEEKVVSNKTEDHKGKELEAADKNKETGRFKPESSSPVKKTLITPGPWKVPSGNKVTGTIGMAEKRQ
Method in brief: as §1

[4] = target: T3, PDZ protein (GST-PDZ fusion) (Homo sapiens, UniProt Q6P0Q8)
T3 construct: made in house; host or cells: E. coli (DH5alpha, BL21 or JM109)
T3 sequence (Q6P0Q8 whole entry, the tested form may be a part): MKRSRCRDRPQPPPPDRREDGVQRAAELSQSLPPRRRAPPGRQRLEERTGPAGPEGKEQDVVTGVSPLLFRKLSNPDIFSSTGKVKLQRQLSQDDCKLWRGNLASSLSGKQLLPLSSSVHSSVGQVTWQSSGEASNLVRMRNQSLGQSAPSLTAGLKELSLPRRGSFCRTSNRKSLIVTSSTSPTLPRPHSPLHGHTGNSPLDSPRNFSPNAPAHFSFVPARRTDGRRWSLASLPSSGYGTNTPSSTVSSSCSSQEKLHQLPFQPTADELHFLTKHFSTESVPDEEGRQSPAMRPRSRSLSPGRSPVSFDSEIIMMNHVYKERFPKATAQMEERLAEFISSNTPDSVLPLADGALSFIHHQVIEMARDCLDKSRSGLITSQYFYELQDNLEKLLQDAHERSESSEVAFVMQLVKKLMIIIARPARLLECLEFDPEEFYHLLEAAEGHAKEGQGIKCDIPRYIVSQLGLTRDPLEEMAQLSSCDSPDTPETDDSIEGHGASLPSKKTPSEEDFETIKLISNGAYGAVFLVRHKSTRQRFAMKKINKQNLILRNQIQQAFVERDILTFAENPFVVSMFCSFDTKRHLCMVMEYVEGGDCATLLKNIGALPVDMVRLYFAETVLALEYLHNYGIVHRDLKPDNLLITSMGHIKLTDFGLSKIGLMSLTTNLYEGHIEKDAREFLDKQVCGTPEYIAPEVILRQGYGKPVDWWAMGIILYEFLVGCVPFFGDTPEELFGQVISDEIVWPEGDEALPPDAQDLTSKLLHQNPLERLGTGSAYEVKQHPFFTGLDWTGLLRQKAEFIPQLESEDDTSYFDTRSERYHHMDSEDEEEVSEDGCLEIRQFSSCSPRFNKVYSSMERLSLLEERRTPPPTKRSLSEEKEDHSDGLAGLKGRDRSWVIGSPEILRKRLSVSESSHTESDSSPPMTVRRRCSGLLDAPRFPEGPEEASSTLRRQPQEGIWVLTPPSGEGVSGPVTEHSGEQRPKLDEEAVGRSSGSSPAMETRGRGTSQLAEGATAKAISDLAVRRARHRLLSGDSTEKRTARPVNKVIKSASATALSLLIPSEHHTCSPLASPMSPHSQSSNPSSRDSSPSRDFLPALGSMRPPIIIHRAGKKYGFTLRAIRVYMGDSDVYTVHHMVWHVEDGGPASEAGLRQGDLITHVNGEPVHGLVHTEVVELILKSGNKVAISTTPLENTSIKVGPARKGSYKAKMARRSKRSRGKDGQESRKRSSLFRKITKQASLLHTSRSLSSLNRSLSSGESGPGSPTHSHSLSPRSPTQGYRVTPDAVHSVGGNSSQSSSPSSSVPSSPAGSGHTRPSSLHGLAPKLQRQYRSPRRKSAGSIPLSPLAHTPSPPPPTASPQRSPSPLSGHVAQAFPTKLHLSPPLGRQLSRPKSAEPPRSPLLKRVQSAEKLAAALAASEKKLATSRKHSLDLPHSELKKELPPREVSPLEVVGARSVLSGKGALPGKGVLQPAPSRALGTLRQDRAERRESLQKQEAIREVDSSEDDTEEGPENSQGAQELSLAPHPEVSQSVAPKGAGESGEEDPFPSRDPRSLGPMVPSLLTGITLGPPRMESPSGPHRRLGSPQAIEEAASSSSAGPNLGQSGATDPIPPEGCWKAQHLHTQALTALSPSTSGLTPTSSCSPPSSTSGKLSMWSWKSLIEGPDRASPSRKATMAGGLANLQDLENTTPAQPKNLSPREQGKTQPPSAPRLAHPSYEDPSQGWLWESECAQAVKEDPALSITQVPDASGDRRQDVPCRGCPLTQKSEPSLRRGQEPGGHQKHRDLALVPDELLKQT
Method in brief: as §1

[5] = PDZ HEMBA 1003117, PDZ Domain 1

For `CC[C@H](C)[C@H](NC(=O)[C@H](Cc1c[nH]cn1)NC(=O)[C@H](C)NC(=O)[C@H](C)NC(=O)[C@H](CO)NC(=O)[C@@H]1CCCN1C(=O)[C@H](CCCNC(=N)N)NC(=O)[C@H](CC(=O)O)NC(=O)[C@H](CCCCN)NC(=O)[C@@H]1CCCN1C(=O)[C@H](CC(=O)O)NC(=O)[C@H](CCC(=O)O)NC(=O)CCCC[C@@H]1SC[C@@H]2NC(=O)N[C@@H]21)C(=O)N[C@H](C(=O)N[C@@H](CCC(=O)O)C(=O)N[C@@H](C)C(=O)N[C@@H](CC(C)C)C(=O)N[C@@H](CCC(=O)O)C(=O)N[C@H](C(=O)N[C@@H](CC(=O)O)C(=O)N[C@H](C(=O)O)C(C)C)[C@@H](C)O)C(C)C` [PDZ-binding kinase (PBK)] (Biotin-EDPKDRPSAAHIVEALETDV-OH; C-terminus assumed), the Classification ([1]; PDZ PTPL-1, PDZ Domain 2) was 4 (A450 nm 3-4), the Classification ([2]; PDZ BAI-1, PDZ Domain 3) was 1 (A450 nm 0-1) and the Classification ([3]; PDZ KIAA1634, PDZ Domain 2) was 3 (A450 nm 2-3).
“SLKPGTVLPPPPYRHRNTVV (Biotin-SLKPGTVLPPPPYRHRNTVV) [ErbB-4 receptor]” was tested, and the Classification ([1]; PDZ PTPL-1, PDZ Domain 2) was 2 (A450 nm 1-2), the Classification ([2]; PDZ BAI-1, PDZ Domain 3) was 1 (A450 nm 0-1) and the Classification ([3]; PDZ KIAA1634, PDZ Domain 2) was 1 (A450 nm 0-1).
`CC(C)C[C@H](NC(=O)CNC(=O)[C@@H](NC(=O)[C@H](CO)NC(=O)[C@H](CC(N)=O)NC(=O)[C@H](Cc1ccccc1)NC(=O)CNC(=O)[C@H](C)NC(=O)[C@H](C)NC(=O)[C@H](Cc1ccccc1)NC(=O)[C@@H](NC(=O)CCCC[C@@H]1SC[C@@H]2NC(=O)N[C@@H]21)[C@@H](C)O)[C@@H](C)O)C(=O)N1CCC[C@H]1C(=O)N[C@@H](Cc1c[nH]cn1)C(=O)N[C@@H](CO)C(=O)N[C@H](C(=O)N[C@H](C(=O)N[C@@H](CCCNC(=N)N)C(=O)N[C@H](C(=O)O)C(C)C)[C@@H](C)O)[C@@H](C)O` [Neuroligin] (Biotin-TFAAGFNSTGLPHSTTRV-OH; C-terminus assumed) was tested, and the Classification ([1]; PDZ PTPL-1, PDZ Domain 2) was 1 (A450 nm 0-1), the Classification ([1]; PDZ PTPL-1, PDZ Domain 4) was 1 (A450 nm 0-1) and the Classification ([2]; PDZ SHANK, PDZ Domain 1) was 2 (A450 nm 1-2). For the same compound, the Classification ([3]; PDZ KIAA1634, PDZ Domain 1) was 4 (A450 nm 3-4), the Classification ([3]; PDZ KIAA1634, PDZ Domain 2) was 2 (A450 nm 1-2) and the Classification ([4]; PDZ KIAA807) was 3 (A450 nm 2-3).
For “PYSELNYETSHYPASPDSWV (Biotin-PYSELNYETSHYPASPDSWV) [catenin - delta 2]”, the Classification ([1]; PDZ PTPL-1, PDZ Domain 2) was 5 (A450 nm of 4 more than 2× repeated), the Classification ([1]; PDZ PTPL-1, PDZ Domain 4) was 1 (A450 nm 0-1) and the Classification ([2]; PDZ BAI-1, PDZ Domain 3) was 1 (A450 nm 0-1). For the same compound, the Classification [2, 5] was 1 (A450 nm 0-1), the Classification ([3]; PDZ KIAA1634, PDZ Domain 5) was 3 (A450 nm 2-3) and the Classification ([4]; PDZ KIAA0807(S), PDZ Domain 1) was 3 (A450 nm 2-3). The Classification ([4]; PDZ KIAA807 (domain not given)) was 4 (A450 nm 3-4).
With `CC(C)C[C@H](NC(=O)[C@H](Cc1c[nH]c2ccccc12)NC(=O)[C@H](Cc1c[nH]cn1)NC(=O)[C@H](CCCNC(=N)N)NC(=O)[C@H](CC(C)C)NC(=O)[C@@H](NC(=O)[C@H](Cc1ccccc1)NC(=O)[C@H](CCC(N)=O)NC(=O)[C@H](CCCNC(=N)N)NC(=O)[C@@H](NC(=O)[C@H](CCC(=O)O)NC(=O)CNC(=O)[C@H](CCCNC(=N)N)NC(=O)[C@H](CC(=O)O)NC(=O)[C@@H](NC(=O)[C@H](CC(C)C)NC(=O)[C@H](CCC(=O)O)NC(=O)[C@H](CCCNC(=N)N)NC(=O)CCCC[C@@H]1SC[C@@H]2NC(=O)N[C@@H]21)C(C)C)C(C)C)[C@@H](C)O)C(=O)N[C@@H](CCCCN)C(=O)N[C@H](C(=O)O)C(C)C` [Dopamine transporter (Na+-dependent)] (Biotin-RELVDRGEVRQFTLRHWLKV-OH; C-terminus assumed) the Classification ([1]; PDZ PTPL-1, PDZ Domain 4) was 3 (A450 nm 2-3), the Classification [2, 5] was 5 (A450 nm of 4 more than 2× repeated) and the Classification ([3]; PDZ KIAA1634, PDZ Domain 1) was 3 (A450 nm 2-3). The Classification ([4]; PDZ KIAA807) was 4 (A450 nm 3-4) and the Classification ([4]; PDZ KIAA0807(S), PDZ Domain 1) was 4 (A450 nm 3-4).
`CC(C)C[C@H](NC(=O)[C@H](CC(C)C)NC(=O)[C@@H](NC(=O)[C@H](CC(=O)O)NC(=O)CCCC[C@@H]1SC[C@@H]2NC(=O)N[C@@H]21)[C@@H](C)O)C(=O)N[C@@H](CC(C)C)C(=O)N[C@H](C(=O)N[C@@H](CCC(=O)O)C(=O)N[C@@H](CC(N)=O)C(=O)N[C@@H](CCC(=O)O)C(=O)NCC(=O)N[C@@H](CC(=O)O)C(=O)N[C@@H](CCCCN)C(=O)N[C@H](C(=O)N[C@@H](CCC(=O)O)C(=O)N[C@@H](CCC(=O)O)C(=O)N[C@@H](CCC(N)=O)C(=O)N[C@H](C(=O)N[C@@H](CO)C(=O)N[C@@H](Cc1ccc(O)cc1)C(=O)N[C@H](C(=O)O)C(C)C)C(C)C)[C@@H](C)O)[C@@H](C)O` [5H2B_HUMAN] (Biotin-DTLLLTENEGDKTEEQVSYV-OH; C-terminus assumed) was tested, and the Classification ([1]; PDZ PTPL-1, PDZ Domain 2) was 5 (A450 nm of 4 more than 2× repeated), the Classification ([1]; PDZ PTPL-1, PDZ Domain 4) was 2 (A450 nm 1-2) and the Classification ([2]; PDZ BAI-1, PDZ Domain 3) was 4 (A450 nm 3-4). The Classification [2, 5] was 1 (A450 nm 0-1), the Classification ([3]; PDZ KIAA1634, PDZ Domain 2) was 5 (A450 nm of 4 more than 2× repeated) and the Classification ([4]; PDZ KIAA807) was 1 (A450 nm 0-1). The Classification ([4]; PDZ KIAA0807(S), PDZ Domain 1) was 1 (A450 nm 0-1).
`CC(C)C[C@H](NC(=O)[C@H](CC(=O)O)NC(=O)[C@H](CO)NC(=O)[C@H](CCC(=O)O)NC(=O)CNC(=O)[C@H](Cc1ccc(O)cc1)NC(=O)[C@H](CC(C)C)NC(=O)[C@H](C)NC(=O)[C@H](CO)NC(=O)[C@H](CO)NC(=O)[C@H](Cc1ccccc1)NC(=O)[C@H](C)NC(=O)[C@H](C)NC(=O)[C@H](Cc1ccc(O)cc1)NC(=O)[C@H](CC(=O)O)NC(=O)[C@H](CC(C)C)NC(=O)[C@H](C)NC(=O)CNC(=O)[C@@H]1CCCN1C(=O)[C@@H](NC(=O)CCCC[C@@H]1SC[C@@H]2NC(=O)N[C@@H]21)C(C)C)C(=O)O` [a-actinin 2] (Biotin-VPGALDYAAFSSALYGESDL-OH; C-terminus assumed) was tested, and the Classification ([1]; PDZ PTPL-1, PDZ Domain 2) was 1 (A450 nm 0-1), the Classification ([2]; PDZ BAI-1, PDZ Domain 2) was 1 (A450 nm 0-1) and the Classification ([2]; PDZ BAI-1, PDZ Domain 6) was 5 (A450 nm of 4 more than 2× repeated). The Classification ([2]; PDZ LIM Protein, PDZ Domain 1) was 4 (A450 nm 3-4), the Classification ([2]; PDZ Novel PDZ, PDZ Domain 1) was 2 (A450 nm 1-2) and the Classification ([2]; PDZ SHANK, PDZ Domain 1) was 1 (A450 nm 0-1). The Classification ([3]; PDZ KIAA1634, PDZ Domain 5) was 5 (A450 nm of 4 more than 2× repeated), the Classification ([4]; PDZ KIAA0807(S), PDZ Domain 1) was 5 (A450 nm of 4 more than 2× repeated) and the Classification ([4]; PDZ KIAA807, PDZ Domain not given) was 5 (A450 nm of 4 more than 2× repeated).
